Measured values from US20230181746A1, “BENZOYLHYDRAZIDE-DERIVED HDAC DEGRADERS AS THERAPEUTICS FOR TREATING CANCER AND OTHER HUMAN DISEASES” (University of Florida Research Foundation, Inc., priority 2020, published 2023).

Columns and labels:
MDA-MB-468 cells = test: Cell viability assay (CellTiter-Glo); type: cell-based
Description: MDA-MB-468, MDA-MB-231, and T47D cells were treated with the indicated compounds at different concentrations for 72 h. Cell viability was assessed with CellTiter-Glo® reagents.
(§1) Cell lines were obtained from ATCC and subsequently authenticated. Cells were cultured with DMEM supplemented with 10% bovine calf serum, penicillin to 10 units/mL, and streptomycin to 10 μg/mL. For viability assays, 5,000 cells/well were seeded in 96-well plates. Compounds at a specified concentration or DMSO were added 24 h later. Viability assays were performed 72 h after compound addition using the CellTiter-Glo reagents (Promega). For colony formation assay, cells (˜1,000 cells/well) were seeded in a 24-well plate in quadruplicates. At 24 h after seeding, DMSO, XZ9002, or XZ9002-NC were added at a specified concentration. Medium was replaced with freshly prepared medium containing DMSO, XZ9002 or XZ9002-NC every five days until visible colonies appeared, typically in 15 to 20 days after initial cell seeding. Cells were fixed with 4% paraformaldehyde for 15 min and stained with 2% methylene blue in 20% ethanol for 30 min to 1 h. The cells were washed twice with distilled water and dried in air. For western blotting, cell cultures were exposed to compounds as indicated in relevant figures. Medium was removed from culture plate, and 1 x passive lysis buffer was then added, the plates were frozen at −80° C. overnight and thawed at room temperature. The total cell lysates were mixed with a one fifth volume of 6x SDS sample buffer, heated at 95° C. for 5 min and cooled on ice. The lysates were cleared by centrifugation and then subjected to SDS-PAGE and western blotting essentially as described. […]

HDAC2 [1] = target: T1, HDAC2 (Homo sapiens, UniProt Q92769); test: HDAC2 protein level in breast cancer cell lines, Western blot; type: cell-based; details: MCF7 cells, 4 h (FIG. 8A)
T1 sequence (Q92769 whole entry): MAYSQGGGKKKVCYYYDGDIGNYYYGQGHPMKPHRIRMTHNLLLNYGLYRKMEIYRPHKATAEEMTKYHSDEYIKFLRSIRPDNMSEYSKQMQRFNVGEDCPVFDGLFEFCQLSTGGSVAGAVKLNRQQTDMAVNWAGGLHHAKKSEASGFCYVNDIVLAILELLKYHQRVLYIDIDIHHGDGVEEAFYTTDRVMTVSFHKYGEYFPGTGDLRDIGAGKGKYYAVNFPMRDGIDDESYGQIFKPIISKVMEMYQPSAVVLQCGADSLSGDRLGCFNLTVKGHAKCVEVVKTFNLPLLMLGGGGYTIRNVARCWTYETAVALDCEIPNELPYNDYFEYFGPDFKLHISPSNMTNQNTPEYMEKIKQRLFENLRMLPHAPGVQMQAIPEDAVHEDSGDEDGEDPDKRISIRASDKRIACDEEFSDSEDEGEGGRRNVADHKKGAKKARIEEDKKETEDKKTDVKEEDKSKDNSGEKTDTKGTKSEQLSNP
Description: FIG. 3A: Western blot showing HDAC protein levels in MDA-MB-468 cells treated with the indicated concentration of XZ9002 for 14 h. FIG. 3B: pretreatment with 1 μM MG132, or 10 μM VHL032 for 1 h blocked the degradation of HDAC3 by XZ9002 {125 nM}. […] NC: XZ9002-NC. FIG. 3C: time-dependent experiment in MDA-MB-468 cells after treatment with 125 nM XZ9002 at the indicated time points. FIG. 3D: MDA-MB-468 cells were incubated with 125 nM of XZ9002 for 14 h followed by drug washout, and incubation of the cells in drug-free medium for an additional time. Data are presented as representative figures of two independent experiments.
The culture of the triple-negative breast cancer cell line MDA-MB-468 and the ER+ breast cancer cell line T47D was exposed to vehicle control (DMSO) and the indicated compounds at specified concentrations for 14 h. Cells were lysed for WB with antibodies against the indicated proteins. Antibodies against acetylated histones at specific sites (H3K27 and H4K5) and acetyl-lysine were used to assess levels of histone acetylation. Levels of HDAC3 were normalized against that of tubulin and % of HDAC3 protein levels in cells treated with the indicated compounds relative to that in DMSO control is shown.
FIGS. 8A-8B show the cellular activity of XZ9002. […] Cells were lysed for WB. The relative HDAC3 protein level in each sample is shown. […]

HDAC2 [2] = target: T1, HDAC2; test: In vitro HDAC activity assay (HDAC-Glo I/II), HDAC2; type: biochemical; parameters: purchased BPS Bioscience 50002; details: average of three independent assays ± standard deviation
Description: (§2) Purified HDAC1, HDAC2, and HDAC3 (in complex with the deacetylase activation domain of the human NCOR2 (amino acids 395-498)) were obtained from Enzo Life Sciences (HDAC1, catalog # BML-SE456-0050) and BPS Bioscience (HDAC2, catalog #50002 and HDAC3, catalog #50003), respectively. The enzyme activities were tested using the HDAC-Glo I/II reagents (Promega) according to a protocol provided by the manufacturer.

HDAC3 = HDAC3 (Homo sapiens, UniProt O15379); test: HDAC3 degradation in breast cancer cell lines, Western blot; type: cell-based; parameters: endogenous in cells; host or cells: MDA-MB-468, T47D, MCF7; details: MCF7 cells, 4 h (FIG. 8A)
HDAC3, sequence (O15379 whole entry): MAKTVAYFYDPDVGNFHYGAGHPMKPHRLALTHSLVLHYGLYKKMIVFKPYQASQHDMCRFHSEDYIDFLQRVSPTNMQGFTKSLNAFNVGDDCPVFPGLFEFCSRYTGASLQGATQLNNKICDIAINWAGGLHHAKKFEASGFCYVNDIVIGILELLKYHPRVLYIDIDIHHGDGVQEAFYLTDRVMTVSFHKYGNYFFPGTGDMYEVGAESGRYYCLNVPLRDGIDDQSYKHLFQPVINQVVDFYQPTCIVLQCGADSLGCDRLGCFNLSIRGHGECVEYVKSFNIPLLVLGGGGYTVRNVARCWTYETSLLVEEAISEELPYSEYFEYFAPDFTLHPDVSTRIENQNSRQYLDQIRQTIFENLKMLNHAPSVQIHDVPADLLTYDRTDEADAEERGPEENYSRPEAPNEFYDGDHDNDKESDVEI
HDAC3, sequence (Q9Y618 395-498 partner limits assumed): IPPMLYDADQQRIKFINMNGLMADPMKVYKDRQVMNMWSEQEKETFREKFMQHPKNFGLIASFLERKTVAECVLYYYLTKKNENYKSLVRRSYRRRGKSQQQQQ
Text: Data are presented as representative figures of two independent experiments.
Cells were lysed for WB with antibodies against the indicated proteins. Antibodies against acetylated histones at specific sites (H3K27 and H4K5) and acetyl-lysine were used to assess levels of histone acetylation.
Cells were lysed for WB. […] The indicated BC cell lines were exposed to DMSO, XZ9002, or XZ9002-NC at the indicated concentrations. Colonies were fixed and stained.
Cell lines were obtained from ATCC and subsequently authenticated. Cells were cultured with DMEM supplemented with 10% bovine calf serum, penicillin to 10 units/mL, and streptomycin to 10 μg/mL. For viability assays, 5,000 cells/well were seeded in 96-well plates. […] For colony formation assay, cells (˜1,000 cells/well) were seeded in a 24-well plate in quadruplicates. […] Medium was replaced with freshly prepared medium containing DMSO, XZ9002 or XZ9002-NC every five days until visible colonies appeared, typically in 15 to 20 days after initial cell seeding. Cells were fixed with 4% paraformaldehyde for 15 min and stained with 2% methylene blue in 20% ethanol for 30 min to 1 h. The cells were washed twice with distilled water and dried in air. For western blotting, cell cultures were exposed to compounds as indicated in relevant figures. Medium was removed from culture plate, and 1 x passive lysis buffer was then added, the plates were frozen at −80° C. overnight and thawed at room temperature. The total cell lysates were mixed with a one fifth volume of 6x SDS sample buffer, heated at 95° C. for 5 min and cooled on ice. The lysates were cleared by centrifugation and then subjected to SDS-PAGE and western blotting essentially as described.

[3] = target: T2, HDAC3 (in complex with the deacetylase activation domain of the human NCOR2 (amino acids 395-498)) (Homo sapiens, UniProt O15379); test: In vitro HDAC activity assay (HDAC-Glo I/II), HDAC3; type: biochemical; details: for IC50: HDAC-Glo I/II, average of three independent assays ± standard deviation
T2 construct: purchased BPS Bioscience 50003
T2 sequence (O15379 whole entry, the tested form may be a part): as the sequence (O15379 whole entry) above
T2 sequence (Q9Y618 395-498 partner limits assumed): as the sequence (Q9Y618 395-498 partner limits assumed) above
Description: as §2

HDAC1 = HDAC1 (Homo sapiens, UniProt Q13547); test: In vitro HDAC activity assay (HDAC-Glo I/II), HDAC1; type: biochemical; parameters: purchased Enzo Life Sciences BML-SE456-0050; details: average of three independent assays ± standard deviation
HDAC1, sequence (Q13547 whole entry): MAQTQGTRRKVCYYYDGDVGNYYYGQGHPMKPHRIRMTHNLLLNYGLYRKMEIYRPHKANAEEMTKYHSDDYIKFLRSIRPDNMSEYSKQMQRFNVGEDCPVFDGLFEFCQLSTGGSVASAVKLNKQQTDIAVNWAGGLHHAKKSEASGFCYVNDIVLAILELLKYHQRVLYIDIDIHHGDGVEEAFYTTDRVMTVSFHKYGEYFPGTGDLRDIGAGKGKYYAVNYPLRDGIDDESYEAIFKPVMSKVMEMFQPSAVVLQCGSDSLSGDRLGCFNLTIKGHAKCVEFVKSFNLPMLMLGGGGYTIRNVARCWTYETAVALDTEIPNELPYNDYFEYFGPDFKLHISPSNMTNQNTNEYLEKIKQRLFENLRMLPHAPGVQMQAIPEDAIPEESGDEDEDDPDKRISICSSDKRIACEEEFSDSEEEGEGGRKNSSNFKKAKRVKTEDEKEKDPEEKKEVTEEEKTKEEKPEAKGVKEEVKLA
Description: as §2

[4] = test system: non-small cell lung cancer (NSCLC) cell line H1299; test: Clonogenic growth assay, H1299; type: cell-based; details: H1299, treatment for 10 days
Description: H1299 cells were exposed to DMSO, or 28c at the indicated concentrations. Colonies were fixed and stained after treatment for 10 days.
as §1, with “temperature.” for “temperature. The total cell lysates were mixed with a one fifth volume of 6x SDS sample buffer, heated at 95° C. for 5 min and cooled on ice. The lysates were cleared by centrifugation and then subjected to SDS-PAGE and western blotting essentially as described.”

| HDAC2 degradation (in words) (HDAC2 [1]) | IC50 (HDAC2 [2]) [nM] | HDAC3 degradation (in words) (HDAC3) | IC50 [3] [nM] | preference for HDAC3 ([3]; against the other tested HDAC isoforms) [fold] | IC50 (HDAC1) [nM] | SMILES | IC50 (MDA-MB-468 cells; Homo sapiens, MDA-MB-468 cell line, 72 h, CellTiter-Glo, read-out: IC50 cytotoxicity (cell viability)) [nM] | antiproliferative activity (in words) (MDA-MB-468 cells; MDA-MB-468, 72 h, similar trends in MDA-MB-231 and T47D cells) | inhibition of clonogenic growth [4] |
| --- | --- | --- | --- | --- | --- | --- | --- | --- | --- |
| does not significantly degrade | 82 ± 25 | does not significantly degrade | 13 ± 1 | ≥ 13 | 72 ± 10 | CCCNNC(=O)c1ccc(-c2ccc(NC(C)=O)cc2)cc1 [Compound 15, N-(4′-(2-propylhydrazine-1-carbonyl)[1,1′-biphenyl]-4-yl)acetamide] | 990 |  |  |
|  | 1650 ± 70 |  | 320 ± 30 |  | 360 ± 60 | CCCNNC(=O)c1ccc(-c2ccc(NC(=O)CCCCC(=O)N[C@H](C(=O)N3C[C@H](O)C[C@H]3C(=O)N[C@@H](C)c3ccc(-c4scnc4C)cc3)C(C)(C)C)cc2)cc1 [Compound 8b, N^1—((S)-1-((2S,4R)-4-Hydroxy-2-(((S)-1-(4-(4-methylthiazol-5-yl)phenyl)ethyl)carbamoyl)pyrrolidin-1-yl)-3,3-dimethyl-1-oxobutan-2-yl)-N^6-(4′-(2-propylhydrazine-1-carbonyl)-[1,1′-biphenyl]-4-yl)adipamide] |  | decreased antiproliferative activity |  |
|  |  |  |  |  |  | CCCNNC(=O)c1ccc(N2CCN(CCCCCCCC(=O)N[C@H](C(=O)N3C[C@H](O)C[C@H]3C(=O)N[C@@H](C)c3ccc(-c4scnc4C)cc3)C(C)(C)C)CC2)cc1 [Compound 28c, (2S,4R)-1-((S)-3,3-dimethyl-2-(8-(4-(4-(2-propylhydrazine-1-carbonyl)phenyl)piperazinyl)octanamido)butanoyl)-4-hydroxy-N—((S)-1-(4-(4-methylthiazol-5-yl)phenyl)ethyl)pyrrolidine carboxamide] |  |  | effective to inhibit clonogenic growth |
